From patent US20070244115A1, “Amino-Halogen-Imidazopyridines as Proton Pump Inhibitors” (Alana Pharma AG, priority 2004, published 2007)

What follows are compounds tested on pentagastrin-stimulated acid secretion of the perfused rat stomach (assay: Secretion-inhibiting action on the perfused rat stomach (pentagastrin-stimulated acid secretion)). Settings: anesthetized CD rat, dose 2.2 μmol/kg i.d. (intraduodenal).
Assay type: in vivo
Excerpt: Testing of the Secretion-Inhibiting Action on the Perfused Rat Stomach
In Table A which follows, the influence of the compounds according to the invention on the pentagastrin-stimulated acid secretion of the perfused rat stomach after intraduodenal administration in vivo is shown.
The abdomen of anesthetized rats (CD rat, female, 200-250 g; 1.5 g/kg i.m. urethane) was opened after tracheotomy by a median upper abdominal incision and a PVC catheter was fixed transorally in the esophagus and another via the pylorus such that the ends of the tubes just projected into the gastric lumen. The catheter leading from the pylorus led outward into the right abdominal wall through a side opening.
After thorough rinsing (about 50-100 ml), warm (37° C.) physiological NaCl solution was continuously passed through the stomach (0.5 ml/min, pH 6.8-6.9; Braun-Unita I). The pH (pH meter 632, glass electrode EA 147; φ=5 mm, Metrohm) and, by titration with a freshly prepared 0.01N NaOH solution to pH 7 (Dosimat 665 Metrohm), the secreted HCl were determined in the effluent in each case collected at an interval of 15 minutes.
The gastric secretion was stimulated by continuous infusion of 1 μg/kg (=1.65 ml/h) of i.v. pentagastrin (left femoral vein) about 30 min after the end of the operation (i.e. after determination of 2 preliminary fractions). The substances to be tested were administered intraduodenally in a 2.5 ml/kg liquid volume 60 min after the start of the continuous pentagastrin infusion.
The body temperature of the animals was kept at a constant 37.8-38° C. by infrared irradiation and heat pads (automatic, stepless control by means of a rectal temperature sensor).

| Compound | Inhibition of acid secretion (%) |
| --- | --- |
| COc1ccc2nc([S@@+]([O-])Cc3nccc(N4CCOCC4)c3Cl)[nH]c2n1 [Example 2, (S)-2-(3-Chloro-4-morpholin-4-yl-pyridin-2-ylmethanesulfinyl)-5-methoxy-3H-imidazo[4,5-b]pyridine] | >50 |
| COc1ccc2nc([S+]([O-])Cc3nccc(N4CCOCC4)c3Cl)[nH]c2n1 (stereo not drawn) [Example 1, 2-(3Chloro-4-morpholin-4-yl-pyridin-2-ylmethanesulfinyl)-5-methoxy-3H-imidazo[4,5-b]pyridine] | >50 |
| COc1ccc2nc([S@+]([O-])Cc3nccc(N4CCOCC4)c3Cl)[nH]c2n1 [Example 3, (R)-2-(3-Chloro-4-morpholin-4-yl-pyridin-2-ylmethanesulfinyl)-5-methoxy-3H-imidazo[4,5-]pyridine] | >50 |
